Columns and labels:
Mino cells = assay: Antiproliferative effect, MTS cell viability assay, Mino cells; format: cell-based; conditions: Homo sapiens, MINO, Mino mantle cell lymphoma cells; read-out: IC50 (anti-proliferation) Mino cells
Summary of the method: (§1)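 MTS read-out, A490 of formazan from metabolically active cells; compound 0–10 μM (0, 0.001, 0.01, 0.1, 1, 10 μM), 72 h exposure.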

JeKo-1 cells = assay: Antiproliferative effect, MTS cell viability assay, JeKo-1 cells; format: cell-based; conditions: Homo sapiens; JeKo-1 mantle cell lymphoma cells; read-out: IC50 (anti-proliferation) JeKO-1 cells
Summary of the method: as §1

BTK [1] = target: T1, BTK (Homo sapiens, UniProt Q06187); assay: BTK degradation, DC50 and Dmax of Table 1 (cell line not given); format: cell-based; parameters: endogenous in cells; conditions: for DC50: concentration giving 50% reduction of BTK expression level
BTK [2] = target: T1, BTK; assay: Degradation of BTK protein in Namalwa cells (Western blot; DC50, Dmax); conditions: Namalwa B lymphocyte cells, Western blot; for degradation of BTK protein: various concentrations, 24 hours

T1 sequence (Q06187 whole entry): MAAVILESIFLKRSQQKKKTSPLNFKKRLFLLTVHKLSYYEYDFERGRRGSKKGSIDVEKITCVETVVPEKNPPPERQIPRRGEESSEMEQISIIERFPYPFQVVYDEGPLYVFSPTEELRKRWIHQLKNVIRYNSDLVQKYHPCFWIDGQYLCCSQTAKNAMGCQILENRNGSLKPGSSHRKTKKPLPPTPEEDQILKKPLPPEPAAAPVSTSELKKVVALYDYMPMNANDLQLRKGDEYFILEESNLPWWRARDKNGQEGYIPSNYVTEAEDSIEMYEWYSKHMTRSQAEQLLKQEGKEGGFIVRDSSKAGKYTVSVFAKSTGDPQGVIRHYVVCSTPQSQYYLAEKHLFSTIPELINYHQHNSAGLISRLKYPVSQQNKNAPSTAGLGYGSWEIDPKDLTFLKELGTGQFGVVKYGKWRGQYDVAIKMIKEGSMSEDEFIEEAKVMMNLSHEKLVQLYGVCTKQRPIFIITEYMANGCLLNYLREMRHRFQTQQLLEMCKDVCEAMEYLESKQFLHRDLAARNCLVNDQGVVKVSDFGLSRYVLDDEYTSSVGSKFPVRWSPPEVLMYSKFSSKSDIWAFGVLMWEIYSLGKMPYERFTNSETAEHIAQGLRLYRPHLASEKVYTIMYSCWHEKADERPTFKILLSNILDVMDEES

Row | SMILES | Dmax (BTK [1]) [%] | DC50 (BTK [1]) [nM] | degradation of BTK protein at 10^−6 M (BTK [2]) | degradation of BTK protein (BTK [2]) | IC50 (Mino cells) [nM] | IC50 (JeKo-1 cells) [nM]
1 | Nc1ncnc2c1c(-c1ccc(Oc3ccccc3)cc1)nn2C1CCN(CC2CCN(C(=O)N3CCC(CN4CCN(c5ccc6c(c5)C(=O)N(C5CCC(=O)NC5=O)C6=O)CC4)CC3)CC2)CC1 (stereo not drawn) [Compound 41, 5-(4-((1-(4-((4-(4-amino-3-(4-phenoxyphenyl)-1H-pyrazolo(3,4-d)pyrimidin-1-yl)piperidin-1-yl)methyl)piperidine-1-carbonyl)piperidin-4-yl)methyl)piperazin-1-yl)-2-(2,6-dioxopiperidin-3-yl)isoindoline-1,3-dione] | > 90 | 10 to 50 | degradation | dose-dependent degradation | < 1000 | 1000 to 10000
2 | Nc1ncnc2c1c(-c1ccc(Oc3ccccc3)cc1)nn2[C@@H]1CCCN(C(=O)N2CCC(N3CCN(c4ccc5c(c4)C(=O)N(C4CCC(=O)NC4=O)C5=O)CC3)CC2)C1 (stereo partly drawn) [Compound 51, 5-(4-(1-((R)-3-(4-amino-3-(4-phenoxyphenyl)-1H-pyrazolo(3,4-d)pyrimidin-1-yl)piperidine-1-carbonyl)piperidin-4-yl)piperazin-1-yl)-2-(2,6-dioxopiperidin-3-yl)isoindoline-1,3-dione] | > 90 | < 10 | degradation | dose-dependent degradation | < 1000 | < 1000
3 | Nc1ncnc2c1c(-c1ccc(Oc3ccccc3)cc1)nn2C1CCN(C(=O)N2CCC(C3CCN(c4ccc5c(c4)CN(C4CCC(=O)NC4=O)C5=O)CC3)CC2)CC1 (stereo not drawn) [Compound 80, 3-(5-(1′-(4-(4-amino-3-(4-phenoxyphenyl)-1H-pyrazolo[3,4-d]pyrimidin-1-yl)piperidine-1-carbonyl)-[4,4′-bipiperidin]-1-yl)-1-oxoisoindolin-2-yl)piperidine-2,6-dione] | > 75 | > 50 | degradation |  | > 10000 | > 10000
4 | Nc1ncnc2c1c(-c1ccc(Oc3ccccc3)cc1)nn2[C@@H]1CCCN(C(=O)N2CCC(CN3CCN(c4ccc5c(c4)C(=O)N(C4CCC(=O)NC4=O)C5=O)CC3)CC2)C1 (stereo partly drawn) [Compound 55, 5-(4-((1-((R)-3-(4-amino-3-(4-phenoxyphenyl)-1H-pyrazolo(3,4-d)pyrimidin-1-yl)piperidine-1-carbonyl)piperidin-4-yl)methyl)piperazin-1-yl)-2-(2,6-dioxopiperidin-3-yl)isoindoline-1,3-dione] | > 90 | 10 to 50 | degradation | dose-dependent degradation | < 1000 | < 1000
5 | Nc1ncnc2c1c(-c1ccc(Oc3ccccc3)cc1)nn2[C@@H]1CCCN(CC2CCN(C(=O)N3CCC(C4CCN(c5ccc6c(c5)C(=O)N(C5CCC(=O)NC5=O)C6=O)CC4)CC3)CC2)C1 (stereo partly drawn) [Compound 29, 5-(1′-(4-(((R)-3-(4-amino-3-(4-phenoxyphenyl)-1H-pyrazolo(3,4-d)pyrimidin-1-yl)piperidin-1-yl)methyl)piperidine-1-carbonyl)-(4,4′-bipiperidin)-1-yl)-2-(2,6-dioxopiperidin-3-yl)isoindoline-1,3-dione] | > 90 | > 50 | degradation |  | 1000 to 10000 | 1000 to 10000
6 | Nc1ncnc2c1c(-c1ccc(Oc3ccccc3)cc1)nn2C1CCN(C(=O)N2CCN(c3ccc4c(c3)C(=O)N(C3CCC(=O)NC3=O)C4=O)CC2)CC1 (stereo not drawn) [Compound 75, 5-(4-(4-(4-amino-3-(4-phenoxyphenyl)-1H-pyrazolo(3,4-d)pyrimidin-1-yl)piperidine-1-carbonyl)piperazin-1-yl)-2-(2,6-dioxopiperidin-3-yl)isoindoline-1,3-dione] | > 50 | > 50 | degradation |  | > 10000 | > 10000
7 | Nc1ncnc2c1c(-c1ccc(Oc3ccccc3)cc1)nn2C1CCN(CC2CCN(C(=O)N3CCC(N4CCN(c5ccc6c(c5)C(=O)N(C5CCC(=O)NC5=O)C6=O)CC4)CC3)CC2)CC1 (stereo not drawn) [Compound 37, 5-(4-(1-(4-((4-(4-amino-3-(4-phenoxyphenyl)-1H-pyrazolo(3,4-d)pyrimidin-1-yl)piperidin-1-yl)methyl)piperidine-1-carbonyl)piperidin-4-yl)piperazin-1-yl)-2-(2,6-dioxopiperidin-3-yl)isoindoline-1,3-dione] | > 90 | 10 to 50 | degradation | dose-dependent degradation | < 1000 | 1000 to 10000
8 | Nc1ncnc2c1c(-c1ccc(Oc3ccccc3)cc1)nn2C1CCN(C(=O)N2CCC(CN3CCN(c4ccc5c(c4)C(=O)N(C4CCC(=O)NC4=O)C5=O)CC3)CC2)CC1 (stereo not drawn) [Compound 85, 5-(4-((1-(4-(4-amino-3-(4-phenoxyphenyl)-1H-pyrazolo(3,4-d)pyrimidin-1-yl)piperidine-1-carbonyl)piperidin-4-yl)methyl)piperazin-1-yl)-2-(2,6-dioxopiperidin-3-yl)isoindoline-1,3-dione] | > 90 | < 10 | degradation | dose-dependent degradation | < 1000 | < 1000
9 | Nc1ncnc2c1c(-c1ccc(Oc3ccccc3)cc1)nn2C1CCN(C(=O)N2CCC(CCN3CCN(c4ccc5c(c4)C(=O)N(C4CCC(=O)NC4=O)C5=O)CC3)CC2)CC1 (stereo not drawn) [Compound 93, 5-(4-(2-(1-(4-(4-amino-3-(4-phenoxyphenyl)-1H-pyrazolo(3,4-d)pyrimidin-1-yl)piperidine-1-carbonyl)piperidin-4-yl)ethyl)piperazin-1-yl)-2-(2,6-dioxopiperidin-3-yl)isoindoline-1,3-dione] | > 90 | 10 to 50 | degradation | dose-dependent degradation | 1000 to 10000 | 1000 to 10000

More lines, main results first:

Row | Dmax (BTK [1]) [%] | DC50 (BTK [1]) [nM] | degradation of BTK protein at 10^−6 M (BTK [2]) | degradation of BTK protein (BTK [2]) | SMILES | IC50 (Mino cells) [nM] | IC50 (JeKo-1 cells) [nM]
10 | > 50 | > 50 | degradation |  | Nc1ncnc2c1c(-c1ccc(Oc3ccccc3)cc1)nn2[C@@H]1CCCN(C2CCN(C(=O)N3CCN(c4ccc5c(c4)C(=O)N(C4CCC(=O)NC4=O)C5=O)CC3)CC2)C1 (stereo partly drawn) [Compound 159, 5-(4-((R)-3-(4-amino-3-(4-phenoxyphenyl)-1H-pyrazolo(3,4-d)pyrimidin-1-yl)-(1,4′-bipiperidine)-1′-carbonyl)piperazin-1-yl)-2-(2,6-dioxopiperidin-3-yl)isoindoline-1,3-dione] | 1000 to 10000 | > 10000
11 | > 75 | > 50 |  | dose-dependent degradation | Nc1ncnc2c1c(-c1ccc(Oc3ccccc3)cc1)nn2C1CCN(C(=O)N2CCC(N3CCN(c4ccc5c(c4)C(=O)N(C4CCC(=O)NC4=O)C5=O)CC3)CC2)CC1 (stereo not drawn) [Compound 81, 5-(4-(1-(4-(4-amino-3-(4-phenoxyphenyl)-1H-pyrazolo(3,4-d)pyrimidin-1-yl)piperidine-1-carbonyl)piperidin-4-yl)piperazin-1-yl)-2-(2,6-dioxopiperidin-3-yl)isoindoline-1,3-dione] | > 10000 | > 10000
12 | > 75 | 10 to 50 | degradation | dose-dependent degradation | Nc1ncnc2c1c(-c1ccc(Oc3ccccc3)cc1)nn2[C@@H]1CCCN(C2CCN(C(=O)N3CCC(CCN4CCN(c5ccc6c(c5)C(=O)N(C5CCC(=O)NC5=O)C6=O)CC4)CC3)CC2)C1 (stereo partly drawn) [Compound 181, 5-(4-(2-(1-((R)-3-(4-amino-3-(4-phenoxyphenyl)-1H-pyrazolo(3,4-d)pyrimidin-1-yl)-(1,4′-bipiperidine)-1′-carbonyl)piperidin-4-yl)ethyl)piperazin-1-yl)-2-(2,6-dioxopiperidin-3-yl)isoindoline-1,3-dione] | 1000 to 10000 | 1000 to 10000
13 | > 75 | > 50 | degradation |  | Nc1ncnc2c1c(-c1ccc(Oc3ccccc3)cc1)nn2C1CCN(C(=O)N2CCC(C3CCN(c4ccc5c(c4)C(=O)N(C4CCC(=O)NC4=O)C5=O)CC3)CC2)CC1 (stereo not drawn) [Compound 79, 5-(1′-(4-(4-amino-3-(4-phenoxyphenyl)-1H-pyrazolo(3,4-d)pyrimidin-1-yl)piperidine-1-carbonyl)-(4,4′-bipiperidin)-1-yl)-2-(2,6-dioxopiperidin-3-yl)isoindoline-1,3-dione] | > 10000 | > 10000
14 | > 90 | < 10 | degradation | dose-dependent degradation | Nc1ncnc2c1c(-c1ccc(Oc3ccccc3)cc1)nn2[C@@H]1CCCN(C(=O)N2CCC(CCN3CCN(c4ccc5c(c4)C(=O)N(C4CCC(=O)NC4=O)C5=O)CC3)CC2)C1 (stereo partly drawn) [Compound 63, 5-(4-(2-(1-((R)-3-(4-amino-3-(4-phenoxyphenyl)-1H-pyrazolo(3,4-d)pyrimidin-1-yl)piperidine-1-carbonyl)piperidin-4-yl)ethyl)piperazin-1-yl)-2-(2,6-dioxopiperidin-3-yl)isoindoline-1,3-dione] | 1000 to 10000 | 1000 to 10000

— patent publication US12139492B2 (Endotarget Inc., priority 2021, dated 2024)
